The source of these data is ChEMBL document CHEMBL1833862, “Synthesis and biological evaluation of novel 2-arylamino-3-(arylsulfonyl)quinoxalines as PI3Kα inhibitors” (Eur J Med Chem, 2011).

pIC50: −log10 of the molar value. The source made the active and inactive calls. The calls are words filed in the database; no cut-off is given here.

One experiment deals with A549. Nature of the experiment: Cytotoxicity against human A549 cells after 72 hrs by MTT assay. Type of experiment: functional, cell-based. The following applies: A549, 72 h. A general note: Formazan colour is commonly taken as a measure of viable cells.
The test system of a further experiment is HL-60. Kind of experiment: Cytotoxicity against human HL60 cells after 72 hrs by MTT assay. Type of experiment: functional, cell-based. The following applies: HL-60, 72 h.
Another experiment has as its system KB. Kind of experiment: Cytotoxicity against human KB cells after 72 hrs by MTT assay. Type of experiment: functional, cell-based.
Experiment [1] addresses T1, Phosphatidylinositol 4,5-bisphosphate 3-kinase catalytic subunit alpha isoform (Homo sapiens, UniProt P42336). Nature of the experiment: Inhibition of human recombinant PI3Kalpha assessed as production of 3,4,5-inositoltriphosphate after 3 hrs by fluorescence polarization assay. On the technique in general: Polarisation of emitted light reports the rotation of a fluorescent probe.

A further experiment concerns PC-3. Nature of the experiment: cells. The note with it: Homo sapiens, PC-3, 72 h.
The test system of a further experiment is HCT-116. Kind of experiment: cells. The following applies: Homo sapiens, HCT-116, 72 h.
For experiment [2], the target named is T1, Phosphatidylinositol 4,5-bisphosphate 3-kinase catalytic subunit alpha isoform. Kind of experiment: Inhibition of PI3K in human PC3 cells assessed as suppression of Akt Ser473 phosphorylation at 10 uM after 3 hrs by SDS-PAGE and Western blot analysis. Type of experiment: cell-based. The following applies: PC-3. (Immunoblotting shows a protein as a band on a membrane.)

T1 sequence (P42336 whole entry, canonical isoform): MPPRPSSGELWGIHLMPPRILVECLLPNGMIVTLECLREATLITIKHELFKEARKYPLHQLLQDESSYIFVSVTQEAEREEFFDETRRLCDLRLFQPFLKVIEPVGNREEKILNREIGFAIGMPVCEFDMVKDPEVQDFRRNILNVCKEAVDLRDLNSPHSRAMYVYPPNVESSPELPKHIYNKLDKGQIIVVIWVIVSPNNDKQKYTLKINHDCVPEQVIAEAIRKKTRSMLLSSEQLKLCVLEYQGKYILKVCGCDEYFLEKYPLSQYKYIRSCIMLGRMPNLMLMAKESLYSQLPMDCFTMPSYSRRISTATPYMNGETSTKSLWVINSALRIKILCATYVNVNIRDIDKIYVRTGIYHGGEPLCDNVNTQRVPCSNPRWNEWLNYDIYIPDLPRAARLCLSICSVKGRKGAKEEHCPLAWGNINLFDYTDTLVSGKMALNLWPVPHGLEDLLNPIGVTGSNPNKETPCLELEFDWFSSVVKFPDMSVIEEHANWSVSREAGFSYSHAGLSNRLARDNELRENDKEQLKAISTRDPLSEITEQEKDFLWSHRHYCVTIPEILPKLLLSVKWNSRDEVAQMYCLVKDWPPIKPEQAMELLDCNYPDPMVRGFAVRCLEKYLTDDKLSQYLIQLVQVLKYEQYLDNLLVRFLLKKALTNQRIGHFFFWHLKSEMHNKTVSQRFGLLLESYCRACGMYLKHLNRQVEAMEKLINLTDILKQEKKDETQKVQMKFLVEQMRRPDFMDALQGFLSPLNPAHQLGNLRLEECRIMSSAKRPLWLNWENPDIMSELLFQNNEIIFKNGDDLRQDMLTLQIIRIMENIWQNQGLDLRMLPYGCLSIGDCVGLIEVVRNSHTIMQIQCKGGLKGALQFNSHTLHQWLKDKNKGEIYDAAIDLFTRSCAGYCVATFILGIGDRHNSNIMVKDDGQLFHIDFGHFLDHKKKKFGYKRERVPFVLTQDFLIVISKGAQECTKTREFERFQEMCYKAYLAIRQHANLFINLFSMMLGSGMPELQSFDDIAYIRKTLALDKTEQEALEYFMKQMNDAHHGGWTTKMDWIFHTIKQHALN
Description for PC-3: Cytotoxicity against human PC3 cells after 72 hrs by MTT assay

A word on the pIC50: it is the IC50 on a negative log10 scale, so that one unit is a factor of ten. Consider `O=S(=O)(c1ccc(Br)cc1)c1nc2ccccc2nc1Nc1cccc(O)c1`, for which the negative logarithm of the IC50 (pIC50) in the experiment with A549 is 5.10; with HL-60, 6.70; with KB it was 5.08; in experiment [1] it was 6.33; in the experiment on PC-3 it was 5.77; in the experiment with HCT-116, 6.27.

As for `COc1cc(Nc2nc3ccccc3nc2S(=O)(=O)c2ccc(C)cc2)cc(OC)c1`, the pIC50 was 5.09 in the experiment on A549, 7.70 with HL-60, 5.53 in the experiment with PC-3 and below 4.30 in the experiment with HCT-116. Besides, the inhibition entry in experiment [2] was “Active”.

Consider `Cc1ccc(S(=O)(=O)c2nc3ccccc3nc2Nc2cccc(O)c2)cc1`, for which the negative-log IC50 (pIC50) in the experiment with A549 was 5.22; in the experiment with HL-60 it was 6.40; with KB, 5.27; in experiment [1], below 6.00; in the experiment with PC-3, 5.77; in the experiment with HCT-116, 5.42.

With `Nc1ccc(Nc2nc3ccccc3nc2S(=O)(=O)c2ccc(Br)cc2)cc1`, the negative-log IC50 (pIC50) in the experiment with A549 is 5.99; with HL-60, 6.14; in the experiment with KB, 5.39; with PC-3, 5.63; with HCT-116 it was 5.86. Besides, the inhibition result in experiment [2] is “Active”.

In the case of `COc1ccc(S(=O)(=O)c2nc3ccccc3nc2Nc2cccc(O)c2)cc1`, the pIC50 with A549 is 5.21; in the experiment with HL-60, 6.85; in the experiment with KB it was 5.08; in experiment [1], below 6.00; with PC-3 it was 5.79; in the experiment with HCT-116, 6.09.

Regarding `O=S(=O)(c1ccccc1)c1nc2ccccc2nc1Nc1cccc(O)c1`, the negative-log IC50 (pIC50) with A549 was 5.24; in the experiment with HL-60 it was 6.66; in the experiment with KB, 5.07; in experiment [1], below 6.00; with PC-3 it was 5.77; in the experiment with HCT-116 it was 5.94.
